Reference: US4973603A, “Platelet activating factor antagonist and methods of use therefor” (priority 1989, dated 1990)

System: platelet activating factor (PAF)
Assay: PAF Induced Mortality
Type: in vivo, mouse (Charles River CD-1, female)
Method: The induction of mortality by the injection of low doses of PAF into mice has been described as a method for assessing the effectiveness of agents to antagonize the anaphylactic properties of PAF by J. M. Young, P. J. Maloney, S. W. Jubb and J. S. Clarke, in Prostaglandins, 30:545-551 (1985). Charles River CD-1 female mice (25-30 g) were given intraperitoneal injections of PAF (10 μg) dissolved in 100 μl of 5% ethanol-saline. […] Test drugs were orally administered in 50 μl of peanut oil one hour prior to PAF injection. Control mice were dosed with vehicle only. Mortality was assessed by counting survivors at one hour, two hours, and twenty four hours after the PAF injection.

[1] = 20 mg/kg oral, 1 hr after PAF (10 μg i.p.)
[2] = 20 mg/kg oral, 2 hrs after PAF (10 μg i.p.)
[3] = 20 mg/kg oral, 24 hrs after PAF (10 μg i.p.)
[4] = 40 mg/kg oral, 1 hr after PAF (10 μg i.p.)
[5] = 40 mg/kg oral, 2 hrs after PAF (10 μg i.p.)
[6] = 40 mg/kg oral, 24 hrs after PAF (10 μg i.p.)
[7] = 80 mg/kg oral, 1 hr after PAF (10 μg i.p.)
[8] = 80 mg/kg oral, 2 hrs after PAF (10 μg i.p.)
[9] = 80 mg/kg oral, 24 hrs after PAF (10 μg i.p.)

SMILES: CCCCCc1cc(O)c2c(c1)OC(C)(C)C1CC=C(C(=O)O)CC21 (centres unmarked) [Formula I, 6a,7,10,10a-tetrahydro-6,6-dimethyl-9-carboxyl-3-pentyl-6H-dibenzo[b,d]pyran-1-ol]
- Survivors (%) [1]: 25%
- Survivors/N [1]: 5/20
- Survivors (%) [2]: 25%
- Survivors/N [2]: 5/20
- Survivors (%) [3]: 25%
- Survivors/N [3]: 5/20
- Survivors (%) [4]: 80%
- Survivors/N [4]: 12/15
- Survivors (%) [5]: 80%
- Survivors/N [5]: 12/15
- Survivors (%) [6]: 80%
- Survivors/N [6]: 12/15
- survival rate (40 mg/kg oral, all time points (1, 2, 24 hours)): 80%
- Survivors (%) [7]: 70%
- Survivors/N [7]: 7/10
- Survivors (%) [8]: 70%
- Survivors/N [8]: 7/10
- Survivors (%) [9]: 70%
- Survivors/N [9]: 7/10
- antagonism of anaphylactic effects of PAF (in words) (oral, mouse): potent antagonist to the anaphylactic effects of PAF
